These results are taken from the Kinase Knowledgebase extract (Sharma et al. 2016).

Molecules are shown by their SMILES. “And” between values parts separate entries of the source, which are not always exact repeats. Equal entries are not always repeated.

In the first assay the target is MAPK14 (human) (UniProt Q16539). The experiment in a line: Cell-Based Assay. The conditions noted are these: thp1.
Chain of MAPK14 (human) (Q16539 whole entry, looked up): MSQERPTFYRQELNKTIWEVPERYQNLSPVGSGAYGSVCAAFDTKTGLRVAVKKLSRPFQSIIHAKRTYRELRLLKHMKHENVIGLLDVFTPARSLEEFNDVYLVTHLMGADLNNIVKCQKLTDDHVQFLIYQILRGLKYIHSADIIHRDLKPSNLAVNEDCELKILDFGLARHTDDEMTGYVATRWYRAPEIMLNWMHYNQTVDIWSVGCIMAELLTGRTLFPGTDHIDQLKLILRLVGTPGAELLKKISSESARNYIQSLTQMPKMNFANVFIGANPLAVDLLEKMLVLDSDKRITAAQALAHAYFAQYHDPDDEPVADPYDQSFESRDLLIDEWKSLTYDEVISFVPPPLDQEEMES
Molecule `Cc1ccc(-n2nc(C(C)(C)C)cc2NC(=O)Nc2ccccc2F)cc1` gave a Cp of 51 µg/mL, an EC50 of 130 nM and a dissociation constant (Kd) of 14 nM.

In the case of `CC(C)(C)c1cc(NC(=O)Nc2ccccc2)n(-c2ccc3ccccc3c2)n1`, the concentration giving a half-maximal response (EC50) was 1900 nM and the Kd worked out at 8 nM.

As for `CC(C)(C)c1cc(NC(=O)Nc2ccc(N)cc2)n(-c2ccccc2)n1`, the dissociation constant Kd stood at 318 nM.

`Cc1cccc(-n2nc(C(C)(C)C)cc2NC(=O)Nc2ccccc2)c1` gave an EC50 of 380 nM and a Kd of 2 nM.

`CC(C)(C)c1cc(NC(=O)Cc2ccc(Cl)cc2)n(-c2ccccc2)n1` registered an equilibrium dissociation constant (Kd) of over 900 nM.

The molecule `CC(C)(C)c1cc(NC(=O)Nc2cccnc2)n(-c2ccccc2)n1` displayed a dissociation constant Kd of 420 nM.

As to `CC1(c2cc(NC(=O)Nc3ccccc3)n(-c3ccccc3)n2)CCOCC1`, the Kd amounted to 280 nM.

As for `CN(C(=O)Nc1cc(C(C)(C)C)nn1-c1ccccc1)c1ccc(Cl)cc1`, the Kd amounted to 7500 nM.

Turning to `CC(C)(C)c1cc(NC(=O)Nc2ccccn2)n(-c2ccccc2)n1`, the Kd came out at 400 nM.

`CC(C)(C)c1cc(NC(=O)Nc2ccccc2)n(-c2ccc(N)cc2)n1` had an EC50 of 630 nM and a dissociation constant (Kd) of 7 nM.

`COc1cccc(-n2nc(C(C)(C)C)cc2NC(=O)Nc2ccccc2)c1` came in with a concentration for a half-maximal effect (EC50) of 960 nM and a Kd of 19 nM.

In turn, `CC(C)(C)c1cc(NC(=O)Nc2ccc(Cl)cc2)n(-c2ccccc2)n1` showed a concentration giving a half-maximal response (EC50) of 1000 nM and a dissociation constant Kd of 8 nM.

`O=C(Nc1ccccc1)Nc1cc(C2CCCCC2)nn1-c1ccccc1` had a Kd of over 400 nM.

`Cc1ccc(-n2nc(C(C)(C)C)cc2NC(=O)Nc2ccccc2)cc1C` had an EC50 of 120 nM and an equilibrium dissociation constant (Kd) of 4 nM.

`COc1ccc(-n2nc(C(C)(C)C)cc2NC(=O)Nc2ccccc2)cc1`: the concentration giving a half-maximal response (EC50) worked out at 1600 nM and the dissociation constant Kd is 31 nM.

Take `Cc1ccc(-n2nc(C(C)(C)C)cc2NC(=O)Nc2ccccc2)cc1`: the Cp worked out at 11 µg/mL; the EC50 turned out to be 180 nM; the dissociation constant (Kd) was 3 nM and 21 nM.

`CC(C)(C)c1cc(NC(=O)Nc2ccc3ccccc3c2)n(-c2ccccc2)n1` gave an EC50 of 700 nM.

Consider `CN(C(=O)Nc1ccc(Cl)cc1)c1cc(C(C)(C)C)nn1-c1ccccc1`, for which the equilibrium dissociation constant (Kd) was over 1000 nM.

The molecule `CC(C)(C)c1cc(NC(=O)Nc2ccncc2)n(-c2ccccc2)n1` had a Kd of 1200 nM.

`CC(C)(C)c1cc(NC(=S)Nc2ccc(Cl)cc2)n(-c2ccccc2)n1` registered a Kd of 530 nM.

`CC(C)(C)c1cc(NC(=O)NC2Cc3ccccc3C2)n(-c2ccccc2)n1` yielded an EC50 of 770 nM and a Kd of 14 nM.

For the molecule `CC(C)(C)c1cc(NC(=O)Nc2cccc3ccccc23)n(-c2ccccc2)n1`, the concentration giving a half-maximal response (EC50) came to 250 nM and the Kd was found to be 5 nM.

In turn, `CC(C)(C)c1cc(NC(=O)Nc2ccccc2)n(-c2ccccc2)n1` showed a Cp of 0.1 µg/mL, an EC50 of 730 nM and a dissociation constant Kd of 13 nM.

In the case of `Cc1cccc(NC(=O)Nc2cc(C(C)(C)C)nn2-c2ccccc2)c1C`, the EC50 turned out to be 410 nM and the Kd was found to be 3 nM.

The molecule `CC(C)(C)c1cc(NC(N)=O)n(-c2ccccc2)n1` registered a Kd of over 7000 nM.

As to `Cc1ccc(-n2nc(C(C)(C)C)cc2NC(=O)Nc2cccc3ccccc23)cc1`, the 50% effective concentration (EC50) amounted to 370 nM.

As to `Cc1ccccc1-n1nc(C(C)(C)C)cc1NC(=O)Nc1ccccc1`, the EC50 amounted to 2300 nM and the Kd stood at 200 nM.

With `Cc1cc(NC(=O)Nc2ccccc2)n(-c2ccccc2)n1`, the Kd was over 7000 nM.

The molecule `CC(C)(C)c1cc(NC(=O)Nc2ccccc2)n(-c2ccncc2)n1` had an EC50 of 820 nM and a Kd of 21 nM.

`COCC(C)(C)c1cc(NC(=O)Nc2ccccc2)n(-c2ccccc2)n1` had a Kd of 1400 nM.

Molecule `CC(C)c1cc(NC(=O)Nc2ccccc2)n(-c2ccccc2)n1` gave an equilibrium dissociation constant (Kd) of 330 nM.

Molecule `CCC(C)(C)c1cc(NC(=O)Nc2ccccc2)n(-c2ccccc2)n1` showed a Kd of 12 nM.

`CC(C)(C)c1cc(NC(=O)NC2CCc3ccccc32)n(-c2ccccc2)n1` (stereo not given) came in with an EC50 of 330 nM and a Kd of 3 nM.

Molecule `CC(C)(C)c1cc(NC(=O)NCCc2ccccc2)n(-c2ccccc2)n1` displayed a concentration giving a half-maximal response (EC50) of 11000 nM and a Kd of 260 nM.

For `CC(C)(c1ccccc1)c1cc(NC(=O)Nc2ccccc2)n(-c2ccccc2)n1`, the Kd stood at 760 nM.

In turn, `CC(C)(C)c1cc(NC(=O)Nc2ccccc2)n(C2CCCCC2)n1` displayed a Kd of 500 nM.

As to `CC(C)(C)c1cc(NC(=O)NCc2ccccc2)n(-c2ccccc2)n1`, the EC50 worked out at 1200 nM and the Kd came out at 47 nM.

As to `CC(C)(C)c1cc(NC(=O)Nc2cccc(N)c2)n(-c2ccccc2)n1`, the concentration for a half-maximal effect (EC50) is 1000 nM and the Kd is 100 nM.

The molecule `CC1(c2cc(NC(=O)Nc3ccccc3)n(-c3ccccc3)n2)CCCCC1` returned a dissociation constant Kd of 22 nM.

In turn, `CC(C)(C)c1cc(NC(=O)NC2CCCCC2)n(-c2ccccc2)n1` gave an EC50 of 3300 nM and a dissociation constant (Kd) of 130 nM.

`CC(C)(C)c1cc(CC(=O)Nc2ccc(Cl)cc2)n(-c2ccccc2)n1` showed a Kd of 1500 nM.

The assay is the same for the next values; noted with them: thp1, concentration not given here.
In the case of `Cc1ccc(-n2nc(C(C)(C)C)cc2NC(=O)Nc2ccccc2F)cc1`, the inhibition is 53%.
